Values after ≈ are worked out from the molar mass of the structure shown. Where two headings read alike, the source gives them in different places.
Tests used:
Escherichia coli = assay: Broth microdilution MIC, 50 clinical isolates (incl. ESBL, one NDM-1); format: cell-based
Experimental: Minimal inhibitory concentration (MIC) values were determined by broth microdilution or agar dilution in accordance with guidelines from the Clinical and Laboratory Standards Institute (CLSI; (1) “Methods for Dilution Antimicrobial Susceptibility Tests for Bacteria That Grow Aerobically; Approved Standard; 11th ed.” CLSI standard M07-A11, 2018; (2) “Performance Standards for Antimicrobial Susceptibility Testing; Twenty-Eighth Informational Supplement,” CLSI document M100-S28, 2018; and (3) “Methods for Antimicrobial Susceptibility Testing of Anaerobic Bacteria; Approved Standard—Eighth Edition,” CLSI document M11-A8, 2012).
Tested aerobically by broth microdilution: • Escherichia coli, n=50 • Klebsiella spp., n=50 • Pseudomonas aeruginosa, n=50 • Streptococcus spp., n=50 • Staphylococcus aureus, n=50 • Enterococcus faecalis, n=50 • Enterobacter aerogenes, n=50 • Proteus mirabilis, n=50
Broth microdilution testing of aerobic bacteria was conducted in cation-adjusted Mueller Hinton broth (MHBII). For testing streptococci, lysed horse blood (LHB) was added to MHBII broth at a final concentration of 3%. Where LHB was used, it was added after filtering.
Broth microdilution susceptibility testing in 96-well microplates was conducted in accordance with CLSI methods (1) and (2). Automated liquid handlers were used to conduct serial dilutions and liquid transfers, including the Multidrop 384 (Labsystems, Helsinki, Finland), Biomek 2000, and the Biomek FX (Beckman Coulter, Fullerton, Calif.). All wells in columns 2 through 12 of a standard 96-well microdilution plate (Costar 3795) were filled with 150 μL of the appropriate diluent. Then, 300 μL of the test agents were added to the wells of column 1 of the plates at 100× the highest final concentration to be tested. Serial two-fold dilutions were made across the rows through column 11 using the Biomek 2000. The wells of column 12 contained no drug and served as the growth control wells. This plate served as the “mother plate” from which MIC assay plates or “daughter plates” were made.
The daughter plates were loaded with 190 μL per well of the appropriate medium using the Multidrop 384. The daughter plates were created using the Biomek FX which transferred 2 μL of drug solution from each well of a mother plate to each corresponding well of the daughter plate in a single step. A standardized inoculum of each test organism was prepared per CLSI methods (1) to equal a 0.5 McFarland standard, followed by a dilution of 1:20 for aerobes and 1:10 for anaerobes. The plates were then inoculated with 10 μL of the diluted inoculum using the Biomek 2000 from low to high drug concentration, resulting in a final concentration of approximately 5×10^5 CFU/mL per well. An un-inoculated plate was incubated in parallel for each medium for the purpose of assessing solubility of the drug in the test media.
Inoculated plates were stacked 3 or 4 high, covered with a sterile lid on the top plate, placed into boxes with CO2 planchets (streptococci) or plastic bags (all other isolates). Plates were incubated at 35° C. for 16-24 hr in ambient air for aerobes or for 42-48 hr in the anaerobic environment of the Bactron II anaerobe chamber (Sheldon Manufacturing Co.; Cornelius, Oreg.). Following incubation, the microplates were removed from the incubator and viewed from the bottom using a plate viewer. The MIC values were read and recorded as the lowest concentration of drug that inhibited visible growth of the organism as per CLSI methods (1) and (2).

S. pyogenes ATCC 49399 = assay: Broth microdilution MIC (time-kill study); format: cell-based, Streptococcus pyogenes
Streptococcus spp. = assay: Spontaneous mutation frequency assay; format: cell-based; settings: selection at 4× and 8× MIC
Experimental: Initial values of the MIC were determined by agar dilution in accordance with guidelines from the Clinical and Laboratory Standards Institute (CLSI; (1) “Methods for Dilution Antimicrobial Susceptibility Tests for Bacteria That Grow Aerobically; Approved Standard; 11th ed.,” CLSI standard M07, 2018; (2) “Methods for Antimicrobial Susceptibility Testing of Anaerobic Bacteria; Approved Standard—Eighth Edition,” CLSI document M11-A8, 2012.).
The agar plates were prepared by mixing a ratio of 1.0 mL of concentrated drug to 49.0 mL of the appropriate molten (47° C.) agar; the drug-supplemented agar was mixed, poured into 15-by-150 mm petri dishes and allowed to solidify and dry at room temperature prior to inoculation. […] Each plate was allowed to cool at room temperature for at least 1 hr.
The isolates were streaked onto the appropriate agar medium and incubated for 20 hr (aerobes) or 48 hr (Bacteroides under anaerobic conditions). Using a sterile swab, several well-isolated colonies were removed and resuspended in sterile saline at a heavy cell density. Each plate was inoculated with 0.5 mL of the cell suspension (each test concentration was inoculated in duplicate). The target inoculum for each spontaneous mutation plate was 10^9-10 CFU. In addition, a portion of the inoculum from each isolate was enumerated by making dilutions, spreading on agar and counting colonies.
Once the inoculum was absorbed into the agar, the plates were incubated at 35° C. Aerobes were examined at 24 and 48 hr, and resulting colonies were counted. Bacteroides were incubated anaerobically for 48-72 hr in the anaerobe chamber and colonies were counted.
Colony counts from plates used to enumerate the initial inoculum density and from the resulting spontaneous mutation frequency test plates were determined. The inoculum size was calculated as CFU inoculated per plate. The spontaneous mutation frequency was calculated using the counts from duplicate spontaneous mutation assay test plates as follows:
If there were no colonies on the antibiotic selection plates, the spontaneous mutation frequency was reported as less than the frequency observed with one colony to indicate that the spontaneous mutation frequency was less than the limit of detection (one CFU). […] The mutation prevention concentration (MPC) was reported as the lowest concentration for which no mutants were selected.

[1] = tested on: E. coli ATCC 35218 (TEM-1 β-lactamase producer); assay: Broth microdilution MIC (time-kill study); format: cell-based, Escherichia coli
Clostridium spp. = assay: Agar dilution MIC, 10 clinical isolates; format: cell-based
E. coli ATCC 35218 = assay: Time-kill assay; format: cell-based, Escherichia coli; settings: 2×, 4×, 8× MIC; 2, 6, 24 hr
[2] = 10 Clostridium spp. clinical isolates

## CO[C@H]1/C=C/O[C@@]2(C)Oc3c(C)c(O)c4c(O)c(c5c(nc6cc(C)ccn65)c4c3C2=O)NC(=O)/C(C)=C\C=C\[C@H](C)[C@H](O)[C@@H](C)[C@@H](O)[C@@H](C)[C@H](OC(C)=O)[C@@H]1C [rifaximin]
Escherichia coli
  MIC50: 8 µg/mL (≈ 10.2 µM)
  MIC90: 16 µg/mL (≈ 20.4 µM)
  MIC range: 1 to 32 µg/mL
  Mode: 8 µg/mL
Escherichia coli; 1 μg/mL
  Cumulative percentage of isolates inhibited at MIC: 2.0%
  Number of test isolates at MIC: 1
Escherichia coli; 2 μg/mL
  Cumulative percentage of isolates inhibited at MIC: 6.0%
  Number of test isolates at MIC: 2
Escherichia coli; 4 μg/mL
  Cumulative percentage of isolates inhibited at MIC: 34.0%
  Number of test isolates at MIC: 14
Escherichia coli; 8 μg/mL
  Cumulative percentage of isolates inhibited at MIC: 80.0%
  Number of test isolates at MIC: 23
Escherichia coli; 16 μg/mL
  Cumulative percentage of isolates inhibited at MIC: 98.0%
  Number of test isolates at MIC: 9
Escherichia coli; 32 μg/mL
  Cumulative percentage of isolates inhibited at MIC: 100.0%
  Number of test isolates at MIC: 1
S. pyogenes ATCC 49399; S. pyogenes ATCC 49399
  MIC: 0.12 µg/mL (≈ 0.153 µM)
S. pyogenes ATCC 49399; broth microdilution
  MIC: 0.12 µg/mL (≈ 0.153 µM)
Streptococcus spp.
  Spontaneous Mutation Frequency: ≥ 2.77×10^−8
Streptococcus spp.; listed as rifampin
  Spontaneous Mutation Frequency: ~10^−8
[1]; E. coli ATCC 35218
  MIC: 4 µg/mL (≈ 5.09 µM)
[1]; broth microdilution
  MIC: 4 µg/mL (≈ 5.09 µM)
Clostridium spp.
  MIC50: > 64 µg/mL
  MIC90: > 64 µg/mL
Clostridium spp.; [2]
  MIC50: >64 µg/mL
  MIC90: >64 µg/mL
Clostridium spp.; modal MIC, 10 Clostridium spp. clinical isolates
  Mode: >64 µg/mL
E. coli ATCC 35218
  time-kill kinetics outcome (bactericidal = ≥3 log reduction in CFU per mL): bacteriostatic at 8× the MIC with regrowth at 24 hr for both 2× and 4× the MIC

— US20210386367A1, “DEVICES AND SYSTEMS FOR GASTROINTESTINAL MICROBIOME DETECTION AND MANIPULATION” (Progenity, Inc., priority 2018, published 2021)
